{"source": "patent US20250186396A1", "about": "“COMPOSITIONS AND METHODS FOR THE TREATMENT OF GLIOBLASTOMA WITH A DUAL TARGETING ANTI-TUMOR COMPOSITION” (Northwestern University, priority 2023, published 2025)", "system": "OLFML3", "assay": "RT-qPCR of OLFML3 in PTEN-KO SF763 cells", "format": "cell-based, human", "conditions": "shC PTEN-KO SF763 cells; SC75741 5 μM; 8 hours", "experimental": "Cell Culture. The GBM cell lines U87, U251, SF763, LN229, and CT2A, as well as 293T cells were cultured in Dulbecco's Modified Eagle's Medium (DMEM; Gibco, #11995-065). The mouse glioma cell line GL261 cells and SIM-A9 microglia were cultured in Dulbecco's Modified Eagle Medium-Ham's F12 medium (Gibco, #10565-018). HMC3 microglia were cultured in Eagle's Minimum Essential Medium (ATCC, #30-2003). THP-1 macrophages were cultured in RPMI 1640 medium (Gibco, #11875093). All cell lines were cultured in the indicated medium containing 10% fetal bovine serum (FBS; Fisher Scientific, #16140071) and 1:100 antibiotic-antimycotic (Gibco, #15140-122), and were purchased from the American Type Culture Collection (ATCC). Human GSCs (GSC23 and GSC7-10) and mouse GBM tumor-derived 005 GSCs and QPP7 GSCs were cultured in neural stem cell (NSC) proliferation media (Millipore, #SCM005) containing 20 ng/mL epidermal growth factor (EGF; PeproTech, #AF-100-15) and basic fibroblast growth factor (bFGF; PeproTech, #100-18B). Human GSCs were gifted by Dr. Frederick F. Lang from the Brain Tumor Center (The University of Texas MD Anderson Cancer Center). […]\nQuantitative real-time PCR (RT-qPCR). […] RNA was quantified by NanoDrop spectrophotometers and then the All-In-One 5× RT MasterMix (Applied Biological Materials, #G592) was used to reverse-transcribe RNA into cDNA in T100 Thermal Cycler (Bio-Rad). […]", "data": [{"compound": "O=C(c1ccccc1)c1ccc2nc(NC(=O)c3csc(C4CCN(c5ncnc6ccsc56)CC4)n3)[nH]c2c1", "note": "[SC75741]", "values": [{"measurement": "mRNA expression of OLFML3", "result": "upregulated"}]}]}
